Reference: article PMC10004598, “Identification and Characterization of a Novel Cathelicidin from Hydrophis cyanocinctus with Antimicrobial and Anti-Inflammatory Activity” (Molecules, 2023)
In brackets after ≈: the same amount, converted by molar mass. Where two headings read alike, the source gives them in different places. No end group written: not given here.

What was measured:
[1] = test system: Staphylococcus aureus [ATCC 25923]; settings: broth microdilution, MH broth, 37 °C, 16–20 h
Method: (§1) The microorganisms (Staphylococcus aureus [ATCC 25923], Escherichia coli [ATCC 25922], and Propionibacterium acnes [ATCC 6919]) were obtained from Fuxiang Biotechnology (Shanghai, China). The five strains of K. pneumoniae clinical isolates (44, 48, 49, 50, and 51) were obtained from the Department of Critical Care Medicine, Shanghai Tenth People’s Hospital.
(§2) The antimicrobial assay was performed by broth microdilution method, following the guidelines of the Clinical and Laboratory Standards Institute. Strains (mentioned in Section 4.3) were inoculated into Mueller-Hinton broth (MH), oscillated (37 °C, 220 rpm, 12 h) to the logarithmic growth stage, and then diluted to 10^6 CFU/mL. […] Then, the absorbance was measured at 600 nm in a microplate reader (Epoch Biotek, Winooski, VT, USA). […] The minimum inhibitory concentration (MIC) was defined as the lowest concentration of an antimicrobial where there was no visible growth. After measuring the MIC, a 50 μL sample was taken from the growth well without visible bacteria, serially diluted with phosphate-buffered saline (PBS, pH = 7.0), then spread on an MH agar solid medium and incubated at 37 °C for 12 h. The number of colonies was calculated, and the minimum drug concentrations that killed 99.9% of bacteria were considered the minimum bactericidal concentration (MBC) of the peptide.

E. coli [2] = settings: human serum:peptide solution (10 mg/mL) 4:1 v:v, 37 °C, read-out MIC, mean of three independent experiments in triplicate
Method: The same amount of solution was taken at each time point and gradient dilution was carried out with normal saline.

E. coli [3] = settings: mean of three independent experiments in triplicate
Method: E. coli was inoculated into MH broth and oscillated (37 °C, 220 rpm, 12 h) to the logarithmic growth stage. Then diluted to 10^6 CFU/mL. […] The MICs of these peptides were then measured.

human erythrocytes = human erythrocytes 2% suspension, 250 μg/mL, 37 °C, 0.5 h, absorbance 540 nm, 1% Triton X-100 = complete hemolysis; mean of three independent experiments in triplicate
Method: Centrifuge at 25 °C at 1500 rpm for 5 min. Transfer 180 μL of supernatant to a 96-well plate and measure absorbance value at 540 nm. Normal saline was used as a negative control and 1% Triton X-100 solution as a positive control (complete hemolysis).

E. coli [4] = settings: mean of three independent experiments in triplicate; remark: listed apart in the source
Method: E.coli was inoculated into MH broth and oscillated (37 °C, 220 rpm, 12 h) to the logarithmic growth stage. Then diluted to 10^6 CFU/mL. […] Then, the absorbance was measured at 600 nm.

[5] = test system: S. aureus biofilm formation; assay: Biofilm inhibition assay (crystal violet); assay type: cell-based, Staphylococcus aureus; settings: 2 × MIC, 37 °C, 24 h, absorbance 600 nm, three independent experiments in quintuplicate
Method: Sterile PBS was used to wash 3 times and methanol was used to fix it for 0.5 h. After drying, 1% crystal violet solution was used to stain for 0.5 h, washed 3 times with sterilized deionized water, and dissolved with 100 μL anhydrous ethanol. The absorbance was measured at 600 nm.

E. coli [6] = settings: mean of three independent experiments in triplicate; remark: listed apart in the source
Method: E. coli was inoculated into MH broth and oscillated (37 °C, 220 rpm, 12 h) to the logarithmic growth stage. Then diluted to 10^6 CFU/mL in MH broth with NaCl (0, 50, 100, 150, and 200 mM) or CaCl2 (1, 2, and 4 mM). […] The absorption value was detected at 600 nm.

[7] = test system: K. pneumoniae 49 (clinical isolate); assay: microbe, parasite or virus in culture
Method: as §1, §2

[8] = test system: K. pneumoniae 51 (clinical isolate); assay: microbe, parasite or virus in culture
Method: as §1, §2

[9] = test system: K. pneumoniae 48 (clinical isolate); assay: microbe, parasite or virus in culture
Method: as §1, §2

[10] = test system: K. pneumoniae 50 (clinical isolate); assay: microbe, parasite or virus in culture
Method: as §1, §2

[11] = test system: Propionibacterium acnes [ATCC 6919]; assay: microbe, parasite or virus in culture
Method: as §1, §2

[12] = test system: Klebsiella pneumoniae 44 (clinical isolate); assay: microbe, parasite or virus in culture
Method: as §1, §2

[13] = test system: Escherichia coli [ATCC 25922]; assay: microbe, parasite or virus in culture
Method: as §1, §2

[14] = test system: L929 (mouse fibroblast cell line); assay: Cytotoxicity assay (CCK-8); assay type: cell-based; settings: L929, 32 μg/mL, 24 h, mean of three independent experiments in triplicate
Method: (§3) RAW264.7 (murine macrophage cell line), L929 (mouse fibroblast cell line), and HaCaT (human immortal keratinocyte cell line) were purchased from the Shanghai Institute of Biochemistry and Cell Science, Chinese Academy of Sciences.
(§4) The cells were cultured using a DMEM medium containing 10%FBS and 1% penicillin-streptomycin solution. In 96-well plates, 100 µL of cells (2 × 10^4 cells/well) in DMEM were seeded and cultured overnight in an incubator at 5% CO2 and 37 °C. […] Subsequently, the medium was replaced by 100 μL DMEM containing 10% Cell Counting Kit-8 reagent, and incubated for 0.5 h at 37 °C. The absorbance was measured at […].

[15] = test system: HaCaT (human immortal keratinocyte cell line); assay: Cytotoxicity assay (CCK-8); assay type: cell-based; settings: 32 μg/mL, 24 h, mean of three independent experiments in triplicate
Method: as §3, §4

E. coli [16] = assay type: cell-based, Escherichia coli; settings: compound at MBC, 37 °C
Method: Time-killing kinetics were determined with the method as previously described. […] The mixture was sampled 50 μL at 5, 15, 30, 60, 120, 240, and 480 min. Dilute the samples with sterile MH broth to a 10-fold gradient. Bacterial suspensions were plated at MH agar plates. After incubation at 37 °C for 12 h, the number of colonies was calculated.

In the case of “KRFKKFFKKLRKSVKKRVKKFFKKPKVIGVSIPF [Hydrostatin-AMP2]”, the MIC [1] is reported as 32 µg/mL, the “MIC after incubation with human serum” value (E. coli [2]; 1 h) is reported as 32 µg/mL and the “MIC after incubation with human serum” value (E. coli [2]; 2 h) is reported as 32 µg/mL. For the same molecule, the “MIC after incubation with human serum” value (E. coli [2]; 3 h) was 32 µg/mL, the “MIC after incubation at pH 2” value (E. coli [3]; peptide incubated in PBS pH 2 for 4 h at 37 °C) was 64 μg/mL and the “MIC after incubation at pH 12” value (E. coli [3]; peptide incubated in PBS pH 12 for 4 h at 37 °C) was 64 μg/mL. The Hemolysis (human erythrocytes) was 4.6%, the “MIC after incubation at temperature” value (E. coli [4]; peptide incubated at 4 °C for 1 h) was 32 µg/mL and the “MIC after incubation at temperature” value (E. coli [4]; peptide incubated at 37 °C for 1 h) was 32 µg/mL. For the same molecule, the “MIC after incubation at temperature” value (E. coli [4]; peptide incubated at 80 °C for 1 h) was 32 µg/mL, the “MIC after incubation at temperature” value (E. coli [4]; peptide incubated at 100 °C for 1 h) was 64 µg/mL and the “inhibition of biofilm formation” value [5] was 71.02%. For the same molecule, the MIC (E. coli [6]; Control (NaCl 0 mM, untreated peptide)) was 16 µg/mL, the MIC (E. coli [6]; MH broth with CaCl2 1 mM) was 64 µg/mL and the MIC (E. coli [6]; MH broth with CaCl2 2 mM) was 64 µg/mL. It also gave an MIC (E. coli [6]; MH broth with CaCl2 4 mM) of 128 µg/mL, an MIC (E. coli [6]; MH broth with NaCl 50 mM) of 32 µg/mL and an MIC (E. coli [6]; MH broth with NaCl 100 mM) of 32 µg/mL. For the same molecule, the MIC (E. coli [6]; MH broth with NaCl 150 mM) was 32 µg/mL, the MIC (E. coli [6]; MH broth with NaCl 200 mM) was 64 µg/mL and the MIC ([7]; K. pneumoniae 49, clinical isolate, broth microdilution, MH broth, 37 °C, 16–20 h) was 32 µg/mL. The MIC ([8]; K. pneumoniae 51, clinical isolate, broth microdilution, MH broth, 37 °C, 16–20 h) was 32 µg/mL, the MIC ([9]; K. pneumoniae 48, clinical isolate, broth microdilution, MH broth, 37 °C, 16–20 h) was 16 µg/mL and the MIC ([10]; K. pneumoniae 50, clinical isolate, broth microdilution, MH broth, 37 °C, 16–20 h) was 32 µg/mL. It also gave an MIC ([11]; Propionibacterium acnes, broth microdilution, MH broth, 37 °C, 16–20 h) of 32 µg/mL, an MIC ([12]; Klebsiella pneumoniae 44, clinical isolate, broth microdilution, MH broth, 37 °C, 16–20 h) of 32 µg/mL and an MIC ([13]; broth microdilution (CLSI), MH broth, 10^6 CFU/mL, 37 °C, 16–20 h, absorbance 600 nm) of 16 µg/mL. For the same molecule, the MBC ([13]; minimum concentration killing 99.9% of bacteria, plating on MH agar, 37 °C, 12 h) was 32 µg/mL, the “Cell Death” value [14] was 8.08% and the “Cell Death” value [15] was 5.89%.
For `CC1(C)S[C@@H]2[C@H](NC(=O)[C@H](N)c3ccccc3)C(=O)N2[C@H]1C(=O)O` [Ampicillin, reference compound], the “time at which bacteriostatic effect starts” value (E. coli [16]) was at least 1 h, the “killing of E. coli within 8 h” value (E. coli [16]; 8 h) was “failed to completely kill” and the killing rate (E. coli [16]; after 4 h) was “about 47%”. It also gave an MIC ([7]; Klebsiella pneumoniae) of over 128 µg/mL, an MIC ([8]; Klebsiella pneumoniae) of over 128 µg/mL and an MIC ([9]; Klebsiella pneumoniae) of over 128 µg/mL. For the same molecule, the MIC ([10]; Klebsiella pneumoniae) was over 128 µg/mL, the MIC ([11]; Cutibacterium acnes, ATCC6919) was 0.25 µg/mL (≈ 0.715 µM) and the MIC ([12]; Klebsiella pneumoniae) was over 128 µg/mL. The MBC ([13]; ATCC25922, 12 h) was 16 µg/mL (≈ 45.8 µM).
